{
  "source": "patent US12187728B2",
  "about": "(Raze Therapeutics, Inc., priority 2015, dated 2025)",
  "data": [
    {"target": "T1, Human MTHFD2 (Homo sapiens, UniProt P13995)", "T1 construct": "residues 36-350 in Uniport ID P13995; His6 (N); made in house; host or cells: E. coli", "T1 sequence (P13995 36-350)": "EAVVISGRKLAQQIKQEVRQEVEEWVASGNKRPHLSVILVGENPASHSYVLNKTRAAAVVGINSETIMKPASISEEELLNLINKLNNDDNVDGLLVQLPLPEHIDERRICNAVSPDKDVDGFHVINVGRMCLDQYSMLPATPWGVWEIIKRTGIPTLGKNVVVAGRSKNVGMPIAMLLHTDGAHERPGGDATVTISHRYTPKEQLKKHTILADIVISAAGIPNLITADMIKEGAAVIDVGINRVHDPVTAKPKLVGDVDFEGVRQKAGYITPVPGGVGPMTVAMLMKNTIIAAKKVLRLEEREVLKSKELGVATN", "assay": "MTHFD2 Activity Assay (dehydrogenase activity, diaphorase/resazurin coupled fluorescence)", "assay_type": "biochemical", "settings": "inhibitory activity (IC50 and/or binding constant); 0.2 nM MTHFD2, 11 concentrations", "summary_of_the_method": "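Steps: compound + 0.2 nM enzyme, 15 min, pH 8.0 Hepes buffer; add 70 μM CH2-THF, 1 mM NAD+, 100 μM resazurin, diaphorase; 30 min; quench with EDTA; read fluorescence. Data normalized to DMSO (100%) and no-enzyme (0%) wells.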", "units": {"IC50": "nM"}, "values": [
      {"smiles": "Cn1c(NCC2(O)CCCCC2)nc2c1c(=O)n(Cc1ccc(Cl)c(Cl)c1)c(=O)n2C", "note": "[Example 106, 1-(3,4-dichlorobenzyl)-8-((1-hydroxycyclohexyl)methylamino)-3,7-dimethyl-1H-purine-2,6(3H,7H)-dione]", "IC50": "1000 to 5000"},
      {"smiles": "Cn1c(NCC2(O)CCCCC2)nc2c1c(=O)n(Cc1ccc(C(F)(F)F)cc1)c(=O)n2C", "note": "[Example 107, 8-((1-hydroxycyclohexyl)methylamino)-3,7-dimethyl-1-(4-(trifluoromethyl)benzyl)-1H-purine-2,6(3H,7H)-dione]", "IC50": "> 10000"},
      {"smiles": "Cn1c(N[C@@H]2CCCC[C@H]2O)nc2c1c(=O)n(Cc1ccc(Cl)c(Cl)c1)c(=O)n2C", "note": "[Example 108, 1-(3,4-dichlorobenzyl)-8-((1R,2R)-2-hydroxycyclohexylamino)-3,7-dimethyl-1H-purine-2,6(3H,7H)-dione]", "IC50": "1000 to 5000"},
      {"smiles": "Cn1c(Nc2ccc3c(c2)NC(=O)CCC3)nc2c1c(=O)n(Cc1ccc(Cl)c(Cl)c1)c(=O)n2C", "note": "[Example 109, 1-(3,4-dichlorobenzyl)-3,7-dimethyl-8-(2-oxo-2,3,4,5-tetrahydro-1H-benzo[b]azepin-8-ylamino)-1H-purine-2,6(3H,7H)-dione]", "IC50": "10 to 1000"},
      {"smiles": "Cn1c(N[C@@H]2CCC[C@@H]2C(=O)O)nc2c1c(=O)n(Cc1ccc(C(F)(F)F)cc1)c(=O)n2C", "note": "[Example 110, (1S,2R)-2-(3,7-dimethyl-2,6-dioxo-1-(4-(trifluoromethyl)benzyl)-2,3,6,7-tetrahydro-1H-purin-8-ylamino)cyclopentanecarboxylic acid]", "IC50": "1000 to 5000"},
      {"smiles": "Cn1c(N[C@@H]2CCC[C@@H]2C(=O)O)nc2c1c(=O)n(Cc1ccc(Cl)c(Cl)c1)c(=O)n2C", "note": "[Example 111, (1S,2R)-2-(1-(3,4-dichlorobenzyl)-3,7-dimethyl-2,6-dioxo-2,3,6,7-tetrahydro-1H-purin-8-ylamino)cyclopentanecarboxylic acid]", "IC50": "10 to 1000"},
      {"smiles": "Cn1c(NC2CC(F)(F)C2)nc2c1c(=O)n(Cc1ccc(Cl)c(Cl)c1)c(=O)n2C", "note": "[Example 112, 1-(3,4-dichlorobenzyl)-8-(3,3-difluorocyclobutylamino)-3,7-dimethyl-1H-purine-2,6(3H,7H)-dione]", "IC50": "1000 to 5000"},
      {"smiles": "Cn1c(N[C@@H]2CCCC[C@H]2O)nc2c1c(=O)n(Cc1ccc(C(F)(F)F)cc1)c(=O)n2C", "note": "[Example 113, 8-((1R,2R)-2-hydroxycyclohexylamino)-3,7-dimethyl-1-(4-(trifluoromethyl)benzyl)-1H-purine-2,6(3H,7H)-dione]", "IC50": "> 10000"},
      {"smiles": "Cn1c(NCc2cnccn2)nc2c1c(=O)n(Cc1ccc(Cl)c(Cl)c1)c(=O)n2C", "note": "[Example 116, 1-(3,4-dichlorobenzyl)-3,7-dimethyl-8-(pyrazin-2-ylmethylamino)-1H-purine-2,6(3H,7H)-dione]", "IC50": "1000 to 5000"},
      {"smiles": "Cn1c(NCc2cccnc2)nc2c1c(=O)n(Cc1ccc(Cl)c(Cl)c1)c(=O)n2C", "note": "[Example 117, 1-(3,4-dichlorobenzyl)-3,7-dimethyl-8-(pyridin-3-ylmethylamino)-1H-purine-2,6(3H,7H)-dione]", "IC50": "1000 to 5000"},
      {"smiles": "Cn1c(NCc2ccncc2)nc2c1c(=O)n(Cc1ccc(Cl)c(Cl)c1)c(=O)n2C", "note": "[Example 118, 1-(3,4-dichlorobenzyl)-3,7-dimethyl-8-(pyridin-4-ylmethylamino)-1H-purine-2,6(3H,7H)-dione]", "IC50": "1000 to 5000"},
      {"smiles": "Cn1c(N[C@H](CO)CC2CCCCC2)nc2c1c(=O)n(Cc1ccc(C(F)(F)F)cc1)c(=O)n2C", "note": "[Example 120, (S)-8-(1-cyclohexyl-3-hydroxypropan-2-ylamino)-3,7-dimethyl-1-(4-(trifluoromethyl)benzyl)-1H-purine-2,6(3H,7H)-dione]", "IC50": "> 10000"},
      {"smiles": "Cn1c(N[C@H](CO)CC2CCCCC2)nc2c1c(=O)n(Cc1ccc(Cl)c(Cl)c1)c(=O)n2C", "note": "[Example 121, (S)-8-(1-cyclohexyl-3-hydroxypropan-2-ylamino)-1-(3,4-dichlorobenzyl)-3,7-dimethyl-1H-purine-2,6(3H,7H)-dione]", "IC50": "10 to 1000"},
      {"smiles": "Cn1c(Nc2cccnn2)nc2c1c(=O)n(Cc1ccc(Cl)c(Cl)c1)c(=O)n2C", "note": "[Example 122, 1-(3,4-dichlorobenzyl)-3,7-dimethyl-8-(pyridazin-3-ylamino)-1H-purine-2,6(3H,7H)-dione]", "IC50": "10 to 1000"},
      {"smiles": "Cn1c(Nc2ncco2)nc2c1c(=O)n(Cc1ccc(Cl)c(Cl)c1)c(=O)n2C", "note": "[Example 123, 1-(3,4-dichlorobenzyl)-3,7-dimethyl-8-(oxazol-2-ylamino)-1H-purine-2,6(3H,7H)-dione]", "IC50": "5000 to 10000"},
      {"smiles": "Cn1c(NC2(CO)CCCC2)nc2c1c(=O)n(Cc1ccc(Cl)c(Cl)c1)c(=O)n2C", "note": "[Example 124, 1-(3,4-dichlorobenzyl)-8-(1-(hydroxymethyl)cyclopentylamino)-3,7-dimethyl-1H-purine-2,6(3H,7H)-dione]", "IC50": "10 to 1000"},
      {"smiles": "Cn1c(Nc2ccncc2)nc2c1c(=O)n(Cc1ccc(Cl)c(Cl)c1)c(=O)n2C", "note": "[Example 125, 1-(3,4-dichlorobenzyl)-3,7-dimethyl-8-(pyridin-4-ylamino)-1H-purine-2,6(3H,7H)-dione]", "IC50": "10 to 1000"},
      {"smiles": "Cn1c(Nc2cnccn2)nc2c1c(=O)n(Cc1ccc(Cl)c(Cl)c1)c(=O)n2C", "note": "[Example 126, 1-(3,4-dichlorobenzyl)-3,7-dimethyl-8-(pyrazin-2-ylamino)-1H-purine-2,6(3H,7H)-dione]", "IC50": "10 to 1000"},
      {"smiles": "Cn1c(Nc2ccccc2)nc2c1c(=O)n(Cc1ccc(Cl)c(Cl)c1)c(=O)n2C", "note": "[Example 127, 1-(3,4-dichlorobenzyl)-3,7-dimethyl-8-(phenylamino)-1H-purine-2,6(3H,7H)-dione]", "IC50": "1000 to 5000"},
      {"smiles": "Cn1c(NC2(CO)CCCC2)nc2c1c(=O)n(Cc1ccc(C(F)(F)F)cc1)c(=O)n2C", "note": "[Example 128, 8-(1-(hydroxymethyl)cyclopentylamino)-3,7-dimethyl-1-(4-(trifluoromethyl)benzyl)-1H-purine-2,6(3H,7H)-dione]", "IC50": "> 10000"},
      {"smiles": "C[C@@H](Nc1nc2c(c(=O)n(Cc3ccc(Cl)c(Cl)c3)c(=O)n2C)n1C)C(=O)O", "note": "[Example 129, (R)-2-(1-(3,4-dichlorobenzyl)-3,7-dimethyl-2,6-dioxo-2,3,6,7-tetrahydro-1H-purin-8-ylamino)propanoic acid]", "IC50": "1000 to 5000"},
      {"smiles": "Cn1c(Nc2cccc(C#N)c2)nc2c1c(=O)n(Cc1ccc(Cl)c(Cl)c1)c(=O)n2C", "note": "[Example 130, 3-(1-(3,4-dichlorobenzyl)-3,7-dimethyl-2,6-dioxo-2,3,6,7-tetrahydro-1H-purin-8-ylamino)benzonitrile]", "IC50": "1000 to 5000"},
      {"smiles": "Cn1c(NCCC#N)nc2c1c(=O)n(Cc1ccc(Cl)c(Cl)c1)c(=O)n2C", "note": "[Example 131, 3-(1-(3,4-dichlorobenzyl)-3,7-dimethyl-2,6-dioxo-2,3,6,7-tetrahydro-1H-purin-8-ylamino)propanenitrile]", "IC50": "1000 to 5000"},
      {"smiles": "Cn1c(NCC(=O)O)nc2c1c(=O)n(Cc1ccc(Cl)c(Cl)c1)c(=O)n2C", "note": "[Example 134, 2-(1-(3,4-dichlorobenzyl)-3,7-dimethyl-2,6-dioxo-2,3,6,7-tetrahydro-1H-purin-8-ylamino)acetic acid]", "IC50": "1000 to 5000"},
      {"smiles": "Cn1c(Nc2cn[nH]c2)nc2c1c(=O)n(Cc1ccc(Cl)c(Cl)c1)c(=O)n2C", "note": "[Example 135]", "IC50": "1000 to 5000"},
      {"smiles": "Cn1c(-n2cc(N)cn2)nc2c1c(=O)n(Cc1ccc(Cl)c(Cl)c1)c(=O)n2C", "note": "[Example 136]", "IC50": "10 to 1000"},
      {"smiles": "Cn1c(NCc2ccccc2)nc2c1c(=O)n(Cc1ccc(Cl)c(Cl)c1)c(=O)n2C", "note": "[Example 137, 8-(benzylamino)-1-(3,4-dichlorobenzyl)-3,7-dimethyl-1H-purine-2,6(3H,7H)-dione]", "IC50": "5000 to 10000"},
      {"smiles": "Cn1c(Nc2nccc(O)n2)nc2c1c(=O)n(Cc1ccc(Cl)c(Cl)c1)c(=O)n2C", "note": "[Example 138, 1-(3,4-dichlorobenzyl)-8-(4-hydroxypyrimidin-2-ylamino)-3,7-dimethyl-1H-purine-2,6(3H,7H)-dione]", "IC50": "10 to 1000"},
      {"smiles": "Cn1c(NCc2ccccn2)nc2c1c(=O)n(Cc1ccc(Cl)c(Cl)c1)c(=O)n2C", "note": "[Example 139, 1-(3,4-dichlorobenzyl)-3,7-dimethyl-8-(pyridin-2-ylmethylamino)-1H-purine-2,6(3H,7H)-dione]", "IC50": "1000 to 5000"},
      {"smiles": "Cn1c(Nc2cc[nH]c(=O)n2)nc2c1c(=O)n(Cc1ccc(Cl)c(Cl)c1)c(=O)n2C", "note": "[Example 140, 1-(3,4-dichlorobenzyl)-3,7-dimethyl-8-(2-oxo-1,2-dihydropyrimidin-4-ylamino)-1H-purine-2,6(3H,7H)-dione]", "IC50": "10 to 1000"},
      {"smiles": "Cn1c(Nc2cc[nH]n2)nc2c1c(=O)n(Cc1ccc(Cl)c(Cl)c1)c(=O)n2C", "note": "[Example 141, 8-(1H-pyrazol-3-ylamino)-1-(3,4-dichlorobenzyl)-3,7-dimethyl-1H-purine-2,6(3H,7H)-dione]", "IC50": "1000 to 5000"},
      {"smiles": "Cn1c(Nc2ccccc2C#N)nc2c1c(=O)n(Cc1ccc(Cl)c(Cl)c1)c(=O)n2C", "note": "[Example 142, 2-(1-(3,4-dichlorobenzyl)-3,7-dimethyl-2,6-dioxo-2,3,6,7-tetrahydro-1H-purin-8-ylamino)benzonitrile]", "IC50": "1000 to 5000"},
      {"smiles": "Cn1c(-n2ncnc2N)nc2c1c(=O)n(Cc1ccc(Cl)c(Cl)c1)c(=O)n2C", "note": "[Example 143, 8-(5-amino-1H-1,2,4-triazol-1-yl)-1-(3,4-dichlorobenzyl)-3,7-dimethyl-1H-purine-2,6(3H,7H)-dione]", "IC50": "1000 to 5000"},
      {"smiles": "Cn1c(NC2CC(F)(F)C2)nc2c1c(=O)n(Cc1ccc(C(F)(F)F)cc1)c(=O)n2C", "note": "[Example 145, 8-(3,3-difluorocyclobutylamino)-3,7-dimethyl-1-(4-(trifluoromethyl)benzyl)-1H-purine-2,6(3H,7H)-dione]", "IC50": "> 10000"}
    ]}
  ]
}
